Experimental data: patent US20260250337A1, “HYBRID ANTIMICROBIAL PEPTIDES” (UNIVERSIDADE FEDERAL DO ABC, priority 2023, published 2026)
No end group written: not given here.

Assays:
A. baumannii ATCC19606 [1] = experiment: Broth microdilution MIC, ESKAPE pathogens; format: cell-based; conditions: LB, 37° C., 24 h
Description: (§1) Method. The minimal inhibitory concentration (MIC) against the ESKAPE pathogens was determined using the broth microdilution method^81, 82 in Luria-Bertani (LB) medium. The MIC value was defined as the lowest concentration of peptide at which no microbial growth was observed. A. baumannii ATCC19606, E. coli ATCC11775, E. coli AIC221, E. coli AIC222, K. pneumoniae ATCC13883, S. aureus ATCC12600 P. aeruginosa PAO1, and P. aeruginosa PA14 were incubated on agar plates, and after 24 h, three isolated colonies were inoculated to 5 mL of Luria-Bertani (LB) broth and maintained at 37° C. overnight with shaking. Peptides were then added to 96-well polystyrene microtiter plates at concentrations ranging from 0 to 128 μmol L^−1, and 5×10^5 CFU mL^−1 of each bacterium was inoculated in each well. The plates were incubated at 37° C. for 24 h. Bacterial growth was measured using a microplate reader at 610 nm. Three independent replicates were performed.

E. coli AIC221 = experiment: Broth microdilution MIC, ESKAPE pathogens; format: cell-based; conditions: LB, 37° C., 24 h
Description: as §1

E. coli ATCC11775 = experiment: Broth microdilution MIC, ESKAPE pathogens; format: cell-based; conditions: LB, 37° C., 24 h
Description: as §1

K. pneumoniae ATCC13883 = experiment: Broth microdilution MIC, ESKAPE pathogens; format: cell-based; conditions: LB, 37° C., 24 h
Description: as §1

P. aeruginosa PAO1 = experiment: Broth microdilution MIC, ESKAPE pathogens; format: cell-based; conditions: LB, 37° C., 24 h
Description: as §1

S. aureus ATCC12600 = experiment: Broth microdilution MIC, ESKAPE pathogens; format: cell-based; conditions: LB, 37° C., 24 h
Description: as §1

A. baumannii ATCC19606 [2] = experiment: DiSC3(5) assay, cytoplasmic membrane depolarization; format: cell-based; conditions: peptides at their MIC
Description: Method. The cytoplasmatic membrane depolarization activity of two of the naturally occurring peptides (VmCT1 and temporin A) and two of the hybrids (VT and TV) was determined at their MIC by performing the membrane potential-sensitive dye DiSC3(5), as reported previously^105, 106. A. baumannii ATCC19606 cells were grown at 37° C. with agitation to an optical density of 600 nm (OD600) of 0.5, centrifuged, washed twice with buffer (5 mmol L^−1 HEPES, 20 mmol L^−1 glucose, pH 7.2), and resuspended to an OD600 of 0.05 in the same buffer but containing 0.1 mol L^−1 KCl. Cells (100 μL) were incubated for 15 minutes with 20 nmol L^−1 of DiSC3(5) until a stable reduction in fluorescence was observed, indicating the incorporation of the DiSC3(5) into the bacterial membrane. After adding the peptides (100 μL solution at 1.2 μmol L^−1), membrane depolarization was determined by the change observed in the fluorescence emission intensity of the dye at λex=622 nm and […].

A. baumannii ATCC19606 [3] = experiment: Skin abscess infection mouse model; format: in vivo, mice; conditions: for anti-infective activity four days after the treatment, reduction of load of A. baumannii cells / anti-infective activity two days post-treatment: skin infection, peptides onto the abscess at their MIC; for anti-infective activity versus parent peptides: skin scarification mouse model
Description: Skin abscess infection mouse model. The anti-infective activity of the peptides VmCT1, temporin A, VT, and TV against A. baumannii ATCC19606 was evaluated as described by Torres et al.^82. Bacteria were grown in tryptic soy broth medium to an optical density of 0.5 at 600 nm. Cells were washed twice with sterile phosphate buffered saline (pH 7.4, 13,000 rpm for 1 min) and resuspended to a final concentration of 1×10^7 CFU/20 μL. To generate the skin infection, female CD-1 mice (6 weeks-old) were first anesthetized with isoflurane and their backs were shaved. A superficial linear abrasion was made with a needle on the shaved area to injure only the stratum corneum and the upper layer of the epidermis. An aliquot of 20 μL suspension containing 1×10^7 CFU of A. baumannii was then inoculated over the wound area with a pipette tip. The next day, the infected area was inoculated with the peptides (VmCT1, temporin A, VT, and TV), which were administered onto the abscess at their MIC. The animals were euthanized, and the scarified skin area removed 2- and 4-days post-infection. The excised area was homogenized using a bead beater for 20 min (25 Hz) and serially diluted for CFU quantification. Two independent experiments were carried out with 3 mice per group in each condition.

[4] = Resistance to degradation in fetal bovine serum; format: in vitro ADME; conditions: for remaining at 0.5 h / remaining peptide, 30 min: 30 min; for remaining at 0.5 h: read-out: remaining peptide, 30 min
Description: The resistance to proteolytic degradation of the hybrid peptides was assessed by exposing them for 6 h to serum peptidases in a fetal bovine serum solution^68, 69 (FIG. 5a and Table S4). The peptide degradation kinetics were calculated by integrating the peak area of the peak in relation to the peptide at the beginning of the experiment (time=0) and comparing it to the integrated peak area relative to the peptides after exposure to the enzymes at time points: 0.5, 1, 2, 4, and 6 h (FIG. 5a and Table S4). […] However, AV was resistant to degradation against proteases, with almost 40% peptide content remaining after 4 h of exposure (FIG. 5a and Table S4). […] VP was almost entirely degraded after 30 min (22% of peptide remaining). […] D-amino acid substitutions have been used as alternatives to prevent the degradation of AMPs. For example, Qiu et. al. described a protonectin analog with a D-Lys residue in position 10 as an alternative to protonectin; this analog is not degraded and has higher antimicrobial activity against bacteria and fungi than the original peptide.
Methods. Stability assays were performed following the protocol described by Torres et al.^71. Briefly, a peptide solution was added to GIBCO fetal bovine serum diluted to 25% in water and kept at 37° C. The degradation kinetics were monitored by liquid chromatography and the percentage of peptide remaining was calculated by integrating the peptide peak area. The experiments were performed as three independent replicates, and aliquots were taken at 0, 0.5, 1, 2, 4, and 6 h.

skin tissue = experiment: Skin tissue histopathological analysis (H&E); format: in vivo, mice; conditions: 24 h after infection and treatment
Description: Skin tissue histopathological analysis. […] The fur on the back of the mice was removed and the mice were infected and treated as described in the Skin abscess infection mouse model section. After 24 h, mice were euthanized for tissue collection. Samples were pre-fixed in individual cassettes, then transferred to a container filled with 70% EtOH for slicing and staining. Next, the samples were placed on glass slides for microscopy analysis. We collected the tissue from three mice per condition analyzed.

[5] = bovine, fetal bovine serum, 25% in water, fetal bovine serum 25% in water, 37° C.
[6] = fetal bovine serum 25% in water, 37° C.

Substance	MIC A. baumannii ATCC19606 (A. baumannii ATCC19606 [1]) [µM]	MIC E. coli AIC221 (E. coli AIC221) [µM]	MIC E. coli ATCC11775 (E. coli ATCC11775) [µM]	MIC K. pneumoniae ATCC13883 (K. pneumoniae ATCC13883) [µM]	MIC P. aeruginosa PAO1 (P. aeruginosa PAO1) [µM]	MIC S. aureus ATCC12600 (S. aureus ATCC12600) [µM]	cytoplasmic membrane depolarization, DiSC3(5) fluorescence (A. baumannii ATCC19606 [2])	anti-infective activity four days after the treatment, reduction of load of A. baumannii cells (A. baumannii ATCC19606 [3])	anti-infective activity two days post-treatment (A. baumannii ATCC19606 [3])	anti-infective activity versus parent peptides (A. baumannii ATCC19606 [3])	remaining at 0.5 h [4, 5] [%]	time of exposure after which totally degraded ([4]; fetal bovine serum) [h]	remaining peptide, 30 min [4, 6]	tissue morphology / toxicity, H&E staining (skin tissue)	remaining at 1 h ([4]; bovine, fetal bovine serum, 25% in water, fetal bovine serum 25% in water, 37° C., 1 h, read-out: remaining peptide, 1 h) [%]	remaining at 2 h ([4]; bovine, fetal bovine serum, 25% in water, fetal bovine serum 25% in water, 37° C., 2 h, read-out: remaining peptide, 2 h) [%]	remaining peptide, 1 h ([4]; fetal bovine serum 25% in water, 37° C., 1 h)
FLPLLWRVASGVF-NH2 [VT, Phe-Leu-Pro-Leu-Leu-Trp-Arg-Val-Ala-Ser-Gly-Val-Phe]	16	128	64	128	128	4	depolarized the cytoplasmic membrane	the same effect as the two parent peptides	increased anti-infective activity when compared to the parent peptides	more potent than that of either parent peptides	–	–	–	–	–	–	–
ILGAILNVLKSLG-NH2 [PV, Ile-Leu-Gly-Ala-Ile-Leu-Asn-Val-Leu-Lys-Ser-Leu-Gly]	32	32	32	64	–	16	–	–	–	–	~90	1	~ 90%	–	–	–	–
FLGAIGNVLKSIL-NH2 [TV, Phe-Leu-Gly-Ala-Ile-Gly-Asn-Val-Leu-Lys-Ser-Ile-Leu]	16	16	32	16	128	16	depolarized the cytoplasmic membrane	two orders of magnitude	increased anti-infective activity when compared to the parent peptides	more potent than that of either parent peptides	–	–	–	Neither TV nor VmCT1 changed the tissue's morphology	–	–	–
FLGALWNVAKSVF-NH2 [VmCT1, Phe-Leu-Gly-Ala-Len-Trp-Asu-Val-Ala-Lys-Ser-Val-Phe, reference compound]	8	32	16	64	128	8	–	–	–	–	~20	–	approximately 20%	Neither TV nor VmCT1 changed the tissue's morphology	< 10	< 10	less than 10%
FLPLIGRVLSGIL-NH2 [Temporin A, Phe-Leu-Pro-Leu-Ile-Gly-Arg-Val-Leu-Ser-Gly-Ile-Leu, reference compound]	32	128	64	128	128	8	–	–	–	–	–	–	–	–	–	–	–
